Laboratory results as given in patent publication US11166928B2, “Migraine prevention and treatment” (UNIVERSITATS-KINDERSPITAL, priority 2016, dated 2021).
Entries after “also recorded” stand apart in the source; their conditions may differ. Like-named read-outs stand apart in the source and are kept apart here.

Columns and labels:
migraine patients [1] = experiment: Tolerability, adverse events and palatability in the pilot experiments; format: in vivo, human
From the text: (§1) Monthly migraine attack frequency was summarized over the last 3 months and the average was used for baseline comparison. Patients were either instructed to take 26 g LL or 26 g LY in two daily doses (one hour before breakfast and one hour before dinner, respectively) for the duration of 4 weeks. They were instructed to refrain from any other changes in medication or food habits for the duration of that period. The primary outcome measure was changes in days with migraines from baseline. Days with migraine were recorded using a mobile app (myheadache.ch) or a pen and paper diary and averaged across participants.
as §1, with “take 20 g βHB,” for “take”
(§2) Monthly migraine attack frequency was summarized over the last 3 months and the average was used for baseline comparison. Patients were instructed to take 10 g racemic βHB for the duration of 8 weeks, followed by one week wash-out period and then 8 weeks of 10 g D-βHB daily. They were instructed to refrain from any other changes in medication or food habits for the duration of that period. The primary outcome measure was changes in days with migraines from baseline. Days with migraine were recorded using a mobile app (myheadache.ch) or a pen and paper diary and averaged across participants.

[2] = parameters: species or system human; conditions: in vivo, po
From the text: (§3) Patients diagnosed with medium-high frequency or chronic migraine according to International Headache Society Classification version 3 by an experienced neurologist were included. They were excluded if they had any significant other neurological, psychiatric or medical disorder. A minimum average of 6 migraine days/month was required during the last 3 months. Ten migraine patients (age range: 25-61 years, 1 male, attack frequency range: 6-24 migraine days/months) were included in the pilot study and randomly assigned to four conditions: 1) L-leucine (LL), 2) L-lysine (LY), 3) racemic βHB, 4) D-βHB.
(§4) L-leucine (LL) and L-lysine (LY) are the two completely ketogenic amino acids. Via various steps, unused ketogenic amino acids (i.e. leucine or lysine) are metabolised into KB. While this is commonly known, to the best of our knowledge no data exists on the extent and time frame of such ketogenic amino acids to raise blood βHB levels. For the pharmacokinetics, four migraine patients were instructed to ingest either 13 g LL or 13 g LY on an empty stomach. Blood βHB and glucose concentrations were measured using a portable point-of-care blood ketone meter (Precision Xtra®) and matching test stripes at 5 points in time: 1) Baseline (directly before consumption), 2) 0.5 h after consumption, 3) 1 h after consumption, 4) 2 h after consumption, 5) 3 h after consumption and 6) 4 h after consumption. 13 g roughly correspond to the same number of particles (mmol) as 10 g βHB. Highest average concentrations of βHB were found after 2 and 3 h (mean=0.35 mmol/I; SEM=0.05) and remained levels to remain elevated for over 4 hours (see FIG. 1).
For determining pharmacokinetics, the patients were given 10 g racemic beta-hydroxybutyrate (βHB) orally dissolved in water in 3 different conditions: (1) post cibum (after meal) (2) ante cibum (before meal) (3) 1 hour before meal. Blood βHB and glucose concentrations were measured using a portable point-of-care blood ketone meter (Precision Xtra®) and matching test stripes at 5 points in time: 1) Baseline (directly before consumption), 2) 0.5 h after consumption, 3) 1 h after consumption, 4) 2 h after consumption, 5) 3 h after consumption and 6) 4 h after consumption. […] The levels dropped to near baseline after 2 hours.
Participants were given 10 g D-beta-hydroxybutyrate (βHB) orally dissolved in water in a fasted state. Blood βHB and glucose concentrations were measured using a portable point-of-care blood ketone meter (Precision Xtra®) and matching test stripes at 5 points in time: 1) Baseline (directly before consumption), 2) 0.5 h after consumption, 3) 1 h after consumption, 4) 2 h after consumption, 5) 3 h after consumption and 6) 4 h after consumption (see FIG. 5A). As with racemic βHB, highest average concentrations of βHB were found after approximately 1 h (mean=1.94 mmol/I; SEM=0.48).

migraine patients [3] = experiment: Open-label pilot intervention: change in days with migraine from baseline (headache diary); format: in vivo, human
From the text: as §3, with “D-βHB. […]” for “D-βHB.”
as §1, with “take 20 g βHB,” for “take”
Those two chronic migraineurs (20 or 22 migraine days/month) where instructed to take 20 g racemic βHB daily for 4 weeks and after a 1 week washout period double the dose to 40 g βHB for the following 4 weeks. Migraine days were recorded for the duration of the intervention and patients were instructed to refrain from any other life-style or medication changes. The mean baseline attack frequency was 21 migraine days (SEM=1) and dropped to 11.5 days after 4 weeks of 20 g βHB daily and 6 days after 4 weeks of 40 g βHB daily (see FIG. 4 A). This preventive effect is roughly proportional to the increase in dose, with 20 g βHB leading to 46% reduction in migraine days from baseline (SEM=18.86) and 40 g βHB to a 72% reduction (SEM=12.95; see FIG. 4 B).
as §2

[4] = Blood glucose levels after a single oral dose, measured at the same time as βHB; format: in vivo, human; conditions: 10 g single oral dose, ante cibum/fasted
From the text: as §4, with “13 g roughly correspond to the same number of particles (mmol) as 10 g βHB. Highest average concentrations of βHB were found after 2 and 3 h (mean=0.35 mmol/I; SEM=0.05) and remained levels to remain elevated for over 4 hours (see FIG. 1).” left out
For determining pharmacokinetics, the patients were given 10 g racemic beta-hydroxybutyrate (βHB) orally dissolved in water in 3 different conditions: (1) post cibum (after meal) (2) ante cibum (before meal) (3) 1 hour before meal. Blood βHB and glucose concentrations were measured using a portable point-of-care blood ketone meter (Precision Xtra®) and matching test stripes at 5 points in time: 1) Baseline (directly before consumption), 2) 0.5 h after consumption, 3) 1 h after consumption, 4) 2 h after consumption, 5) 3 h after consumption and 6) 4 h after consumption. […]

migraine patients [5] = experiment: Tolerability, adverse events and palatability in the pilot experiments; format: in vivo, human; conditions: 40 g daily, 4 weeks; 2 patients
[6] = 10 g daily, 8 weeks, 2 patients, mean baseline 13.5 days

NCCCC[C@H](N)C(=O)O [LY, L-lysine, reference compound]
Adverse events / tolerability (migraine patients [1]; 26 g daily (13 g twice a day)): diarrhoea or nausea

CC(C)C[C@H](N)C(=O)O [LL, L-leucine, reference compound]
Time of highest average βHB concentration ([2]; human): 2 and 3 h | Adverse events / tolerability (migraine patients [1]; 26 g daily (13 g twice a day)): diarrhoea or nausea

CC(O)CC(=O)O (racemic) [βHB, beta-hydroxybutyric acid]
Median migraine days after the intervention (migraine patients [3]; 20 g daily, 4 weeks, median at baseline 18): 7 migraine days | Tolerability (in words) (migraine patients [1]; in comparison to the ketogenic amino acids, dose and isomer not stated): well tolerated

CC(O)CC(=O)O (racemic) [racemic βHB, beta-hydroxybutyric acid]
Half-life of blood βHB elevation (in words) ([2]; human): very short | Time after which blood βHB levels dropped back to (near) baseline ([2]; human): 2 h | Time of highest average βHB concentration ([2]; human): approximately 1 h | Peak blood βHB level relative to LL [2]: approximately double | Change in blood glucose levels after consumption [4]: substantial drop; also recorded: drop in blood glucose | Average reduction in migraine days compared to baseline (migraine patients [3]; 10 g daily, 8 weeks, 2 high-frequency migraineurs (17 and 10 migraine days/month)): 18.5% | Mean migraine days after intervention (migraine patients [3]; [6]): 11 days | Average reduction in migraine days compared to baseline (migraine patients [3]; 20 g daily in two doses, 4 weeks, 4 medium-high frequency migraineurs (6-22 migraine days/month)): 51% | Reduction in migraine days from baseline (migraine patients [3]; 20 g daily, 4 weeks, 2 chronic migraineurs (20 or 22 migraine days/month)): 46% | Mean migraine days after intervention (migraine patients [3]; 20 g daily, 4 weeks, 2 chronic migraineurs, mean baseline 21 migraine days): 11.5 days | Mean migraine days after intervention (migraine patients [3]; 20 g daily, 4 weeks, mean baseline 16.25 days): 8 days | Range of reduction in migraine days compared to baseline (migraine patients [3]; 20 g daily, 4 weeks, range across patients): 25-80% | Mean migraine days after intervention (migraine patients [3]; 40 g daily, 4 weeks, 2 chronic migraineurs, mean baseline 21 migraine days): 6 days | Adverse events / tolerability (migraine patients [1]; 20 g daily, 4 weeks, 5 patients): severe nausea and vertigo; also recorded: gastrointestinal upset; also recorded: problematic | Side-effects at increased dose (migraine patients [5]): increased side-effects further in both patients; also recorded: exacerbated the side-effects

CC(O)CC(=O)O [D-βHB, D beta-hydroxybutyric (βHB) acid]
Time of highest average βHB concentration [2]: approximately 1 h | Change in blood glucose levels after consumption [4]: completely stable; also recorded: does not seem to lead to a potentially unwanted drop in blood glucose levels; also recorded: no concomitant drop in blood glucose | Mean migraine days after intervention (migraine patients [3]; [6]): 4.25 days | Side-effects / tolerability (migraine patients [1]; 10 g daily, 8 weeks (2 months), 2 patients): No side-effects; also recorded: much better tolerated; also recorded: fewer gastrointestinal side-effects
